Like-named read-outs stand apart in the source and are kept apart here.
Target: T1, Sigma-1 receptor (Sig-1R) (Homo sapiens, UniProt Q99720)
T1 construct: gene SIGMAR1; human Sig-1R-GFP stably expressed in Neuro-2A cell membranes
Experiment: [3H](+)-pentazocine competition radioligand binding, membranes

T1 sequence (Q99720 whole entry): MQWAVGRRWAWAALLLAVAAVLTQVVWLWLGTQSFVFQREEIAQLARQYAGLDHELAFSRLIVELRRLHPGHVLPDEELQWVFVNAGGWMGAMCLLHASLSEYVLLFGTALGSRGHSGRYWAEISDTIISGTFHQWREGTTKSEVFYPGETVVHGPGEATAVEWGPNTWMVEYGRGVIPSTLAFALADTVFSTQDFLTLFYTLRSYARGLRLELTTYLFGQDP

Ki (read-out: Ki) [µM]	SMILES	Ki [µM]
1320	C[N+](C)(C)CC(=O)O [betaine]	–
–	C[N+](C)(C)CCO [Choline]	525
~12000	CC(=O)OCC[N+](C)(C)C [acetylcholine]	–

Source: article PMC6326163, “Choline Is an Intracellular Messenger Linking Extracellular Stimuli to IP3-Evoked Ca^2+ Signals through Sigma-1 Receptors” (Cell Reports, 2019)
